In the supplement of paper PMC11208160:

Assay: recombinant UMI read abundance after kanamycin selection (control-corrected) (log10(CPM+1)); higher = more efficient recombination; extreme values may be limits of the assay; sequences stand for … in AGTGCAGAGAAAATCGGCCAGTTTTCTCTGCCTGCAGTCCGCATGCCGTGGGACCCCTTGGGTTCTAACCTGTTGCCTAGATTTATGCAGCGGACTGCCTTTCTCCCAAAGTGATAAACCGG…AGGTTGGTTTCACT; site = the 11-nt donor
Procedure, shortened: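 For the IS621 bridge recombinase, a pooled Escherichia coli screen tested donor and donor-binding-loop pairs. Cells received the pair library together with a target plasmid encoding a fixed target and T7-inducible recombinase, then went onto IPTG (0.07 mM) plus kanamycin or unselected plates in duplicate. After PCR across the donor–target junction and sequencing, recombinant UMI counts were normalized to CPM, averaged, and scaled by control-derived factors. Each value is given as log10(CPM+1).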
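Note: IS621 bridge recombinase in Escherichia coli cells against a fixed T5 target plasmid.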

“GGCCATCCATGGACCGGTTTTCCCGGTAATCCGTATTTGAA (site GGCGATCCTTT)” and “GGCCATCCATGGACCGGTTTTCCCGGTAATCCGTATTTGAA (site GGCTATCCTTT)” are within 0.2 log units of each other in “recombinant UMI read abundance (log10)” value: 0.00507 for the first, 0.0589 for the second.

“GGCCCCCCATGGACCGGTTTTCCCGGTAATCCGTATTTGTT (site GGCCACCCTAA)” and “GGCCCCCCATGGACCGGTTTTCCCGGTAATCCGTATTTGTT (site GGCCCCCCTAA)” are within 0.2 log units of each other in “recombinant UMI read abundance (log10)” value: 0.0272 for the first, 0.0352 for the second.

“GGCCCCCCATGGACCGGTTTTCCCGGTAATCCGTATTTGTT (site GGCCGCCCTAA)” and “GGCCCCCCATGGACCGGTTTTCCCGGTAATCCGTATTTGTT (site GGCCTCCCTAA)” are within 0.2 log units of each other in “recombinant UMI read abundance (log10)” value: 0.0281 for the first, 0.0156 for the second.

“GGCCTAGCATGGACCGGTTTTCCCGGTAATCCGTATTTGTT (site AGCCTAGCTAA)” and “GGCCTAGCATGGACCGGTTTTCCCGGTAATCCGTATTTGTT (site CGCCTAGCTAA)” are within 0.2 log units of each other in “recombinant UMI read abundance (log10)” value: 0 for the first, 0.0146 for the second.

“GGCCTAGCATGGACCGGTTTTCCCGGTAATCCGTATTTGTT (site GGCCTAGCTAA)” and “GGCCTAGCATGGACCGGTTTTCCCGGTAATCCGTATTTGTT (site TGCCTAGCTAA)” are within 0.2 log units of each other in “recombinant UMI read abundance (log10)” value: 0.00233 for the first, 0.0108 for the second.

First: GGCGATACATGGACCGGTTTTCCCGGTAATCCGTATTTGCT (site GGCGATACTAG)
Second: GGCGCTACATGGACCGGTTTTCCCGGTAATCCGTATTTGAT (site GGCGCTACTAT)
The “recombinant UMI read abundance (log10)” value of the first is higher: 1.5 for the first, 0.866 for the second.

Compared with “GGCGGCTCATGGACCGGTTTTCCCGGTAATCCGTATTTGTG (site GGCGGCTCTCA)”, “GGCGTGGCATGGACCGGTTTTCCCGGTAATCCGTATTTGGT (site GGAGTGGCTAC)” is lower in “recombinant UMI read abundance (log10)” value: 1.23 for the first, 0.00572 for the second.

Going from “GGCGTGGCATGGACCGGTTTTCCCGGTAATCCGTATTTGGT (site GGCGTGGCTAC)” to “GGCGTGGCATGGACCGGTTTTCCCGGTAATCCGTATTTGGT (site GGGGTGGCTAC)”, the “recombinant UMI read abundance (log10)” value falls from 0.511 to 0.00519.

“GGCGTGGCATGGACCGGTTTTCCCGGTAATCCGTATTTGGT (site GGTGTGGCTAC)” and “GGCTAGACATGGACCGGTTTTCCCGGTAATCCGTATTTGCC (site GGATAGACTGG)” are within 0.2 log units of each other in “recombinant UMI read abundance (log10)” value: 0.00854 for the first, 0 for the second.

Compared with “GGCTAGACATGGACCGGTTTTCCCGGTAATCCGTATTTGCC (site GGCTAGACTGG)”, “GGCTAGACATGGACCGGTTTTCCCGGTAATCCGTATTTGCC (site GGGTAGACTGG)” is lower in “recombinant UMI read abundance (log10)” value: 0.563 for the first, 0 for the second.

First: GGCTAGACATGGACCGGTTTTCCCGGTAATCCGTATTTGCC (site GGTTAGACTGG)
Second: GGCTAGACATGGACCGGTTTTCCCGGTAATCCGTATTTGTG (site GGCTAGACTCA)
The “recombinant UMI read abundance (log10)” value of the first is lower: 0 for the first, 0.659 for the second.

“GGCTATCCATGGACCGGTTTTCCCGGTAATCCGTATTTGAA (site GGCAATCCTTT)” and “GGCTATCCATGGACCGGTTTTCCCGGTAATCCGTATTTGAA (site GGCCATCCTTT)” are within 0.2 log units of each other in “recombinant UMI read abundance (log10)” value: 0.00767 for the first, 0.0272 for the second.

“GGCTATCCATGGACCGGTTTTCCCGGTAATCCGTATTTGAA (site GGCGATCCTTT)” and “GGCTATCCATGGACCGGTTTTCCCGGTAATCCGTATTTGAA (site GGCTATCCTTT)” are within 0.2 log units of each other in “recombinant UMI read abundance (log10)” value: 0.0136 for the first, 0.133 for the second.

First: GGCTCCTCATGGACCGGTTTTCCCGGTAATCCGTATTTGTA (site GGCTCCTCTTA)
Second: GGCTGGCCATGGACCGGTTTTCCCGGTAATCCGTATTTGAT (site GGCTGGCCTAT)
The “recombinant UMI read abundance (log10)” value of the first is higher: 1.84 for the first, 0.0261 for the second.

“GGGAAAACATGGACCGGTTTTCCCGGTAATCCGTATTTGCT (site GAGAAAACTAG)” and “GGGAAAACATGGACCGGTTTTCCCGGTAATCCGTATTTGCT (site GCGAAAACTAG)” are within 0.2 log units of each other in “recombinant UMI read abundance (log10)” value: 0 for the first, 0.0308 for the second.

“GGGAAAACATGGACCGGTTTTCCCGGTAATCCGTATTTGCT (site GGGAAAACTAG)” and “GGGAAAACATGGACCGGTTTTCCCGGTAATCCGTATTTGCT (site GTGAAAACTAG)” are the same in “recombinant UMI read abundance (log10)” value: 0 for the first, 0 for the second.

Going from “GGGAAGACATGGACCGGTTTTCCCGGTAATCCGTATTTGCA (site AGGAAGACTTG)” to “GGGAAGACATGGACCGGTTTTCCCGGTAATCCGTATTTGCA (site CGGAAGACTTG)”, the “recombinant UMI read abundance (log10)” value falls from 0.813 to 0.

Going from “GGGAAGACATGGACCGGTTTTCCCGGTAATCCGTATTTGCA (site GGGAAGACTTG)” to “GGGAAGACATGGACCGGTTTTCCCGGTAATCCGTATTTGCA (site TGGAAGACTTG)”, the “recombinant UMI read abundance (log10)” value falls from 1.96 to 1.19.

First: GGGAAGACATGGACCGGTTTTCCCGGTAATCCGTATTTGCT (site AGGAAGACTTG)
Second: GGGAAGACATGGACCGGTTTTCCCGGTAATCCGTATTTGCT (site GGGAAGACTAG)
The “recombinant UMI read abundance (log10)” value of the first is lower: 0 for the first, 1.69 for the second.

First: GGGAATACATGGACCGGTTTTCCCGGTAATCCGTATTTGAG (site GGGAATACTCT)
Second: GGGAATCCATGGACCGGTTTTCCCGGTAATCCGTATTTGTC (site CGGAATCCTAA)
The “recombinant UMI read abundance (log10)” value of the first is higher: 1.35 for the first, 0.00512 for the second.

First: GGGAATCCATGGACCGGTTTTCCCGGTAATCCGTATTTGTC (site GGGAATCCTGA)
Second: GGGACAACATGGACCGGTTTTCCCGGTAATCCGTATTTGTG (site GGGACAACTCA)
The “recombinant UMI read abundance (log10)” value of the first is lower: 0 for the first, 0.439 for the second.

Compared with “GGGACATCATGGACCGGTTTTCCCGGTAATCCGTATTTGGA (site GGGACATCTTC)”, “GGGACGTCATGGACCGGTTTTCCCGGTAATCCGTATTTGTG (site GGGACGTCTCA)” is higher in “recombinant UMI read abundance (log10)” value: 1.52 for the first, 2.05 for the second.

Going from “GGGCAATCATGGACCGGTTTTCCCGGTAATCCGTATTTGTC (site GGGCAATCTGA)” to “GGGCAATCATGGACCGGTTTTCCCGGTAATCCGTATTTGTG (site GGGCAATCTCA)”, the “recombinant UMI read abundance (log10)” value falls from 2.8 to 1.92.

Compared with “GGGCATGCATGGACCGGTTTTCCCGGTAATCCGTATTTGAG (site GGGCATGCTCT)”, “GGGCATGCATGGACCGGTTTTCCCGGTAATCCGTATTTGGT (site GAGCATGCTAC)” is lower in “recombinant UMI read abundance (log10)” value: 1.57 for the first, 0.336 for the second.

First: GGGCATGCATGGACCGGTTTTCCCGGTAATCCGTATTTGGT (site GCGCATGCTAC)
Second: GGGCATGCATGGACCGGTTTTCCCGGTAATCCGTATTTGGT (site GGGCATGCTAC)
The “recombinant UMI read abundance (log10)” value of the first is lower: 0.0126 for the first, 1.33 for the second.

“GGGCATGCATGGACCGGTTTTCCCGGTAATCCGTATTTGGT (site GTGCATGCTAC)” and “GGGCCAACATGGACCGGTTTTCCCGGTAATCCGTATTTGTG (site GGGCCAACTCA)” are within 0.2 log units of each other in “recombinant UMI read abundance (log10)” value: 0.161 for the first, 0 for the second.

“GGGCCACCATGGACCGGTTTTCCCGGTAATCCGTATTTGCA (site GGGACACCTTG)” and “GGGCCACCATGGACCGGTTTTCCCGGTAATCCGTATTTGCA (site GGGCCACCTTG)” are the same in “recombinant UMI read abundance (log10)” value: 0 for the first, 0 for the second.

“GGGCCACCATGGACCGGTTTTCCCGGTAATCCGTATTTGCA (site GGGGCACCTTG)” and “GGGCCACCATGGACCGGTTTTCCCGGTAATCCGTATTTGCA (site GGGTCACCTTG)” are within 0.2 log units of each other in “recombinant UMI read abundance (log10)” value: 0 for the first, 0.00812 for the second.

In the case of “GGGCCTACATGGACCGGTTTTCCCGGTAATCCGTATTTGCT (site GGGCCTACTAG)”, the “recombinant UMI read abundance (log10)” value is reported as 1.86.
